Results as given in ChEMBL document CHEMBL3091287, “The ameliorating effects of 2,3-dihydroxy-4-methoxyacetophenone on scopolamine-induced memory impairment in mice and its neuroprotective activity” (Bioorg Med Chem Lett, 2013).
pEC50, pIC50: −log10 of the molar value. The source made the active and inactive calls. The calls are words filed in the database; no cut-off is given here.

Legend:
[1] = test system: Mus musculus; assay: Cognitive-enhancing effect in ICR mouse assessed as reduction of scopolamine-induced escape latency at 1 to 20 mg/kg, po administered 1 hr before scopolamine challenge measured on day 4 during trial 1 and 2 by Morris water maze test; assay type: functional, organism-based
[2] = test system: HT-22; assay: Neuroprotective activity in mouse HT22 cells assessed as inhibition of glutamate-induced cell death at 10 uM after 24 hrs by MTT assay; assay type: functional; conditions: HT-22, 24 h
[3] = test system: HT-22; assay: Neuroprotective activity in mouse HT22 cells assessed as inhibition of glutamate-induced increase of intracellular calcium level at 10 to 100 uM after 2 hrs by Fura-2 AM assay; assay type: functional, cell-based
[4] = test system: Mus musculus; assay: Cognitive-enhancing effect in ICR mouse assessed as reduction of scopolamine-induced escape latency at 1 to 20 mg/kg, po administered 1 hr before scopolamine challenge measured on day 3 during trial 1 and 2 by Morris water maze test; assay type: functional, organism-based
[5] = test system: Mus musculus; assay: Cognitive-enhancing effect in ICR mouse assessed as reduction of scopolamine-induced escape latency at 40 mg/kg, po administered 1 hr before scopolamine challenge measured on day 3 during trial 1 and 2 by Morris water maze test; assay type: functional, organism-based; design: dose 40 mg/kg
[6] = test system: Mus musculus; assay: Toxicity in ICR mouse assessed as motor ability by measuring reduction of scopolamine-induced swimming speed at 1 to 50 mg/kg, po administered 1 hr before scopolamine challenge measured on day 4 by Morris water maze test; assay type: organism-based; design: dose 1-50 mg/kg, route oral; conditions: in vivo
[7] = test system: Radical scavenging activity; assay: Antioxidant activity assessed as DPPH radical scavenging activity after 30 mins; assay type: functional
[8] = test system: Mus musculus; assay: Cognitive-enhancing effect in ICR mouse assessed as reduction of scopolamine-induced increase in mean distance to platform at 1 to 50 mg/kg, po administered 1 hr before scopolamine challenge measured on day 4 by Morris water maze test; assay type: functional, organism-based
[9] = test system: Mus musculus; assay: Cognitive-enhancing effect in ICR mouse assessed as reduction of scopolamine-induced escape latency at 50 mg/kg, po administered 1 hr before scopolamine challenge measured on day 2 to 4 during trial 1 and 2 by Morris water maze test; assay type: functional, organism-based; design: dose 50 mg/kg
[10] = test system: HT-22; assay: Neuroprotective activity in mouse HT22 cells assessed as inhibition of glutamate-induced cell death after 24 hrs by MTT assay; assay type: functional, cell-based
[11] = Antioxidant activity assessed as hydrogen peroxide radical scavenging activity; assay type: functional

## COc1ccc(C(C)=O)c(O)c1O
[1]
  Activity: Active
[2]
  inhibition at 10 µM: 50%
[3]
  inhibition: Active
[4]
  Activity: inactive
[5]
  Activity: Active
[6]
  Activity: Non-toxic
[7]
  pIC50: 4.01
  inhibition: Dose-dependent effect
[8]
  Activity: Active
[9]
  Activity: Active
[10]
  inhibition: Dose-dependent effect
[10]; HT-22, 24 h
  pEC50: 4.96
[11]
  pIC50: 4.04
  inhibition: Dose-dependent effect

## O=C1O[C@H]([C@@H](O)CO)C(O)=C1O [ASCORBIC ACID]
[7]
  pIC50: 4.45
[11]
  pIC50: 4.11
